Source: PubChem BioAssay AID1259407 (Chemical Carcinogenesis Research Information System (CCRIS), 2018)
The source made the active and inactive calls. How the calls were made is not given here.

Tested on: CCRIS mutagenicity, Ames/micronucleus/aberration tests
Test: CCRIS mutagenicity studies
[1] = Test System: AMES SALMONELLA TYPHIMURIUM, Strain/Indicator: TA98, Metabolic Activation: NONE, Method: PREINCUBATION
[2] = Test System: AMES SALMONELLA TYPHIMURIUM, Strain/Indicator: TA100, Metabolic Activation: NONE, Method: PREINCUBATION

Measured: mutagenic call

c1ccc2[nH]c(-c3cscn3)nc2c1
active: End Point: IN VITRO MICRONUCLEUS, Test System: HUMAN LYMPHOBLASTOID WTK1 CELLS, Metabolic Activation: NONE active; positive; uva radiation was 250 uw/cm2 | End Point: IN VITRO MICRONUCLEUS, Test System: V79 CELLS, Metabolic Activation: NONE active; positive | Test System: AMES SALMONELLA TYPHIMURIUM, Strain/Indicator: TA97, Metabolic Activation: NONE, BACTERIA IRRADIATED IN PRESENCE OF TEST COMPOUND WITH UVA FOR 10 MIN, TRANSFERRED TO MEDIUM, Metabolic Activation: NONE, BACTERIA IRRADIATED IN PRESENCE OF TEST COMPOUND WITH UVA FOR 10 MIN, TRANSFERRED TO MEDIUM, Method: STANDARD PLATE active; positive; uva was 250 uw/cm2 | Test System: AMES SALMONELLA TYPHIMURIUM, Strain/Indicator: TA98, Metabolic Activation: HAMSTER, LIVER, S-9, AROCLOR 1254 (10%), Method: PREINCUBATION active; positive | Test System: AMES SALMONELLA TYPHIMURIUM, Strain/Indicator: TA98, Metabolic Activation: NONE, BACTERIA IRRADIATED IN PRESENCE OF TEST COMPOUND WITH UVA FOR 10 MIN, TRANSFERRED TO MEDIUM, Metabolic Activation: NONE, BACTERIA IRRADIATED IN PRESENCE OF TEST COMPOUND WITH UVA FOR 10 MIN, TRANSFERRED TO MEDIUM, Method: STANDARD PLATE active; positive; response was just barely positive; uva was 250 uw/cm2 | Test System: AMES SALMONELLA TYPHIMURIUM, Strain/Indicator: TA100, Metabolic Activation: NONE, BACTERIA IRRADIATED IN PRESENCE OF TEST COMPOUND WITH UVA FOR 10 MIN, TRANSFERRED TO MEDIUM, Metabolic Activation: NONE, BACTERIA IRRADIATED IN PRESENCE OF TEST COMPOUND WITH UVA FOR 10 MIN, TRANSFERRED TO MEDIUM, Method: STANDARD PLATE active; positive; uva was 250 uw/cm2 | Test System: AMES SALMONELLA TYPHIMURIUM, Strain/Indicator: TA104, Metabolic Activation: NONE, BACTERIA IRRADIATED IN PRESENCE OF TEST COMPOUND WITH UVA FOR 10 MIN, TRANSFERRED TO MEDIUM, Metabolic Activation: NONE, BACTERIA IRRADIATED IN PRESENCE OF TEST COMPOUND WITH UVA FOR 10 MIN, TRANSFERRED TO MEDIUM, Method: STANDARD PLATE active; positive; uva was 250 uw/cm2 | Test System: E. COLI, Strain/Indicator: WP2S/PKM101, Metabolic Activation: NONE, BACTERIA IRRADIATED IN PRESENCE OF TEST COMPOUND WITH UVA FOR 10 MIN, TRANSFERRED TO MEDIUM, Metabolic Activation: NONE, BACTERIA IRRADIATED IN PRESENCE OF TEST COMPOUND WITH UVA FOR 10 MIN, TRANSFERRED TO MEDIUM, Method: STANDARD PLATE active; positive; uva was 250 uw/cm2
inactive: Test System: AMES SALMONELLA TYPHIMURIUM, Strain/Indicator: TA98, Metabolic Activation: HAMSTER, LIVER, S-9, AROCLOR 1254 (5 OR 30%), Method: PREINCUBATION inactive; negative | [1] inactive; negative | Test System: AMES SALMONELLA TYPHIMURIUM, Strain/Indicator: TA98, Metabolic Activation: RAT, LIVER, S-9, AROCLOR 1254 (30%), Method: PREINCUBATION inactive; negative | Test System: AMES SALMONELLA TYPHIMURIUM, Strain/Indicator: TA100, Metabolic Activation: HAMSTER, LIVER, S-9, AROCLOR 1254 (30%), Method: PREINCUBATION inactive; negative | [2] inactive; negative | Test System: AMES SALMONELLA TYPHIMURIUM, Strain/Indicator: TA100, Metabolic Activation: RAT, LIVER, S-9, AROCLOR 1254 (30%), Method: PREINCUBATION inactive; negative

CCCCON=O
inactive: Test System: AMES SALMONELLA TYPHIMURIUM, Strain/Indicator: TA98, Metabolic Activation: HAMSTER, LIVER, S-9, AROCLOR 1254, Method: STANDARD PLATE inactive; negative | Test System: AMES SALMONELLA TYPHIMURIUM, Strain/Indicator: TA98, Metabolic Activation: NONE, Method: STANDARD PLATE inactive; negative | Test System: AMES SALMONELLA TYPHIMURIUM, Strain/Indicator: TA98, Metabolic Activation: RAT, LIVER, S-9, AROCLOR 1254, Method: STANDARD PLATE inactive; negative | Test System: AMES SALMONELLA TYPHIMURIUM, Strain/Indicator: TA100, Metabolic Activation: HAMSTER, LIVER, S-9, AROCLOR 1254, Method: STANDARD PLATE inactive; negative | Test System: AMES SALMONELLA TYPHIMURIUM, Strain/Indicator: TA100, Metabolic Activation: RAT, LIVER, S-9, AROCLOR 1254, Method: STANDARD PLATE inactive; negative | Test System: AMES SALMONELLA TYPHIMURIUM, Strain/Indicator: TA1537, Metabolic Activation: HAMSTER, LIVER, S-9, AROCLOR 1254, Method: STANDARD PLATE inactive; negative | Test System: AMES SALMONELLA TYPHIMURIUM, Strain/Indicator: TA1537, Metabolic Activation: NONE, Method: STANDARD PLATE inactive; negative | Test System: AMES SALMONELLA TYPHIMURIUM, Strain/Indicator: TA1537, Metabolic Activation: RAT, LIVER, S-9, AROCLOR 1254, Method: STANDARD PLATE inactive; negative
active: Test System: AMES SALMONELLA TYPHIMURIUM, Strain/Indicator: TA98, Metabolic Activation: S-9, Method: STANDARD PLATE active; positive | Test System: AMES SALMONELLA TYPHIMURIUM, Strain/Indicator: TA100, Metabolic Activation: NONE, Method: STANDARD PLATE active; positive | Test System: AMES SALMONELLA TYPHIMURIUM, Strain/Indicator: TA100, Metabolic Activation: S-9, Method: STANDARD PLATE active; positive | Test System: AMES SALMONELLA TYPHIMURIUM, Strain/Indicator: TA1535, Metabolic Activation: HAMSTER, LIVER, S-9, AROCLOR 1254, Method: STANDARD PLATE active; positive | Test System: AMES SALMONELLA TYPHIMURIUM, Strain/Indicator: TA1535, Metabolic Activation: NONE, Method: STANDARD PLATE active; positive | Test System: AMES SALMONELLA TYPHIMURIUM, Strain/Indicator: TA1535, Metabolic Activation: RAT, LIVER, S-9, AROCLOR 1254, Method: STANDARD PLATE active; positive | Test System: MOUSE LYMPHOMA, Strain/Indicator: L5178Y (TK+/TK-), Metabolic Activation: NONE, Method: SUSPENSION/PLATE active; positive. reevaluation of results: positive | Test System: MOUSE LYMPHOMA, Strain/Indicator: L5178Y (TK+/TK-), Metabolic Activation: RAT, LIVER, S-9, AROCLOR 1254, Method: SUSPENSION/PLATE active; positive. reevaluation of results: positive

CC(C)(Oc1ccc(C2CC2(Cl)Cl)cc1)C(=O)O (stereo unspecified)
inactive: Test System: AMES SALMONELLA TYPHIMURIUM, Strain/Indicator: TA98, Metabolic Activation: NONE inactive; negative | Test System: AMES SALMONELLA TYPHIMURIUM, Strain/Indicator: TA98, Metabolic Activation: RAT, LIVER, S-9, AROCLOR 1254 inactive; negative | Test System: AMES SALMONELLA TYPHIMURIUM, Strain/Indicator: TA102, Metabolic Activation: NONE inactive; negative | Test System: AMES SALMONELLA TYPHIMURIUM, Strain/Indicator: TA102, Metabolic Activation: RAT, LIVER, S-9, AROCLOR 1254 inactive; negative | Test System: AMES SALMONELLA TYPHIMURIUM, Strain/Indicator: TA104, Metabolic Activation: NONE inactive; negative | Test System: AMES SALMONELLA TYPHIMURIUM, Strain/Indicator: TA104, Metabolic Activation: RAT, LIVER, S-9, AROCLOR 1254 inactive; negative | Test System: UDS RAT HEPATOCYTES, Strain/Indicator: BROMODEOXYURIDINE INCORP, Metabolic Activation: NONE, Method: FLOW CYTOMETRIC ANALYSIS inactive; negative | Test System: UDS RAT HEPATOCYTES, Strain/Indicator: THY INCORP, Metabolic Activation: NONE, Method: AUTORADIOGRAPHY inactive; negative | Test System: UDS RAT HEPATOCYTES, Strain/Indicator: THY INCORP, Metabolic Activation: NONE, Method: LIQUID SCINTILLATION COUNTING inactive; negative

CCC(=O)OCc1ccccc1[N+](=O)[O-]
inactive: [1] inactive; negative | [2] inactive; negative | Test System: AMES SALMONELLA TYPHIMURIUM, Strain/Indicator: TA100, Metabolic Activation: RAT, LIVER, S-9, AROCLOR 1254, Method: PREINCUBATION inactive; negative

Nc1cc([N+](=O)[O-])ccc1CO
active: [1] active; positive | Test System: AMES SALMONELLA TYPHIMURIUM, Strain/Indicator: TA98, Metabolic Activation: RAT, LIVER, S-9, PHENOBARBITAL AND 5,6-BENZOFLAVONE, Method: PREINCUBATION active; positive | [2] active; positive | Test System: AMES SALMONELLA TYPHIMURIUM, Strain/Indicator: TA100, Metabolic Activation: RAT, LIVER, S-9, PHENOBARBITAL AND 5,6-BENZOFLAVONE, Method: PREINCUBATION active; positive
